Values joined by “and” are separate entries in the source; they are usually repeats but may differ in a detail not shown here. Identical values can stand only once. Like-named read-outs stand apart in the source and are kept apart here.

The record followed here is patent publication US12060333B2 (Hoffmann-La Roche Inc., priority 2021, dated 2024).

Assay [1] addresses SARS-CoV-2 3CLpro (Severe acute respiratory syndrome coronavirus 2, UniProt P0DTD1). The assay is described as follows: biochemical.
The target of assay [2] is SARS-CoV 3CLpro (Severe acute respiratory syndrome coronavirus, UniProt P0C6X7). Nature of the assay: biochemical.
The target of assay [3] is MERS-CoV 3CLpro (Middle East respiratory syndrome-related coronavirus, UniProt K9N7C7). The assay is described as follows: biochemical.
The target of assay [4] is HCoV-229E 3CLpro (Human coronavirus 229E, UniProt P0C6X1). Nature of the assay: HCoV-229E 3CLpro inhibition assay (FRET). Format: biochemical. The conditions noted are these: protease 25 nM, FRET substrate 15 μM, pre-incubated 1 hr, read-out: 229E (activity in different coronaviruses). The procedure:
HCoV-229E 3CL^pro inhibition assay
The HCoV-229E 3CL^pro was expressed in E. coli BL21 (DE3) with the protein sequence of
For the HCoV-229E 3CL^pro assay, 2 μL of […] recombinant HCoV-229E 3CL protease were mixed with serial dilutions of each compound in 4 μL assay buffer containing 40 mM HEPES, pH=8.0, 1 mM CHAPS, 150 mM NaCl, 1 mM EDTA, 1 mM TCEP in a well of a 384-well plate and pre-incubated at rt for 1 hr. The custom-synthesized fluorogenic 3CL^pro peptide substrate used in the assay is as follows: FAM-[…]-TAMRA (peptide sequence according to SEQ ID NO: 3). This FRET-based substrate contains a FAM fluorophore attached at the N-terminus of a canonical 3CL^pro peptide substrate. The fluorophore is internally quenched by the TAMRA. The reaction was initiated by the addition of 10 μL of the substrate with a final concentration of 15 μM and each well was incubated at RT for 30 mins. The final concentration of the protease used at the assay was 25 nM and each compound was at a final concentration range of 100-0.0016 μM. The IC50 value which is the value causing 50% inhibition of the catalytic activity of the HCoV-229E 3CL^pro was calculated by four parameters equation analysis.

Where [5] appears, read: IC50 (μM), SARS-CoV-2 3CLPro assay.
Where [6] appears, read: read-out: IC50 (μM), SARS-CoV-2 3CLPro assay.

On to `CC(C)C[C@H](NC(=O)c1cc2ccccc2[nH]1)C(=O)NN(C[C@@H]1CCNC1=O)C(=O)CCl` (single isomer, unassigned) [Example 51-A], for which the IC50 is 0.004 µM and 0.0027 µM in assay [1] (setting [5]); 15 nM in assay [2]; 60 nM in assay [3]; 17 nM in assay [4].
As for `CC(C)C[C@H](NC(=O)c1cc2ccccc2[nH]1)C(=O)NN(CCC(N)=O)C(=O)CCl` [Example 28, N-[(1S)-1-[[(3-amino-3-oxo-propyl)-(2-chloroacetyl)amino]carbamoyl]-3-methyl-butyl]-1H-indole-2-carboxamide], the IC50 is 0.007 µM in assay [1] (setting [6]), 16 nM in assay [2], 50 nM in assay [3] and 13 nM in assay [4].
For the molecule `CC(C)C[C@@H](C(=O)NN(CCC(N)=O)C(=O)CCl)N(C)C(=O)c1cc2ccccc2[nH]1` [Example 40, N-[(1S)-1-[[(3-Amino-3-axo-propyl)-(2-chloroacetyl)amino]carbamoyl]-3-methyl-butyl]-N-methyl-1H-indole-2-carboxamide], the IC50 in assay [1] (setting [6]) was 0.007 µM.
Same read-out and setting: to `CC(C)C[C@H](NC(=O)c1nc2ccccc2[nH]1)C(=O)NN(CCC(N)=O)C(=O)CCl` [Example 42, N-[(1S)-1-[[(3-Amino-3-axo-propyl)-(2-chloroacetyl)amino]carbamoyl]-3-methyl-butyl]-1H-benzimidazole-2-carboxamide] belongs 0.005 µM.
Same read-out and setting: to `CC(C)C[C@H](NC(=O)c1ccon1)C(=O)NN(CCC(N)=O)C(=O)CCl` [Example 43, N-[(1S)-1-[[(3-Amino-3-oxo-propyl)-(2-chloroacetyl)amino]carbamoyl]-3-methyl-butyl]isoxazole-3-carboxamide] belongs 0.036 µM; to `CC(C)C[C@H](NC(=O)c1cc2cccnc2[nH]1)C(=O)NN(CCC(N)=O)C(=O)CCl` [Example 44, N-[(1S)-1-[[(3-Amino-3-oxo-propyl)-(2-chloroacetyl)amino]carbamoyl]-3-methyl-butyl]-1H-pyrrolo[2,3-b]pyridine-2-carboxamide], 0.017 µM; to `Cc1nc(C(=O)N[C@@H](CC(C)C)C(=O)NN(CCC(N)=O)C(=O)CCl)co1` [Example 45, N-[(1S)-1-[[(3-Amino-3-oxo-propyl)-(2-chloroacetyl)amino]carbamoyl]-3-methyl-butyl]-2-methyl-oxazole-4-carboxamide], 0.046 µM.
For `Cc1oncc1C(=O)N[C@@H](CC(C)C)C(=O)NN(CCC(N)=O)C(=O)CCl` [Example 46, N-[(1S)-1-[[(3-Amino-3-oxo-propyl)-(2-chloroacetyl)amino]carbamoyl]-3-methyl-butyl]-5-methyl-isoxazole-4-carboxamide], the IC50 in assay [1] (setting [6]) came out at 0.07 µM.
Same read-out and setting: in the case of `COc1cc2cc(C(=O)N[C@@H](CC(C)C)C(=O)NN(CCC(N)=O)C(=O)CCl)nc-2c[nH]1` [Example 47, N-[(1S)-1-[[(3-Amino-3-oxo-propyl)-(2-chloroacetyl)amino]carbamoyl]-3-methyl-butyl]-5-methoxy-6H-pyrrolo[2,3-c]pyridine-2-carboxamide] it was 0.014 µM; in that of `Cc1cc(C(=O)N[C@@H](CC2CCCCC2)C(=O)NN(CCC(N)=O)C(=O)CCl)no1` [Example 48, N-[(1S)-2-[2-(3-amino-3-oxo-propyl)-2-(2-chloroacetyl)hydrazino]-1-(cyclohexylmethyl)-2-axo-ethyl]-5-methyl-isoxazole-3-carboxamide], 0.004 µM.
Consider `COc1cccc2[nH]c(C(=O)N[C@@H](CC(C)C)C(=O)NN(CCC(N)=O)C(=O)C(F)Cl)cc12` (stereo partly drawn) [Example 49, 4-Methoxy-N-[(1S)-1-[[(3-amino-3-oxo-propyl)-(2-chloro-2-fluoro-acetyl)amino]carbamoyl]-3-methyl-butyl]-1H-indole-2-carboxamide], for which, in assay [1] (setting [6]), the IC50 amounted to 0.015 µM.
As to `CNC(=O)CCN(NC(=O)[C@H](CC(C)C)N(C)C(=O)c1cc2ccccc2[nH]1)C(=O)CCl` [Example 50, N-[(1S)-1-[[(2-Chloroacetyl)-[3-(methylamino)-3-oxo-propyl]amino]carbamoyl]-3-methyl-butyl]-N-methyl-1H-indole-2-carboxamide], in assay [1] (setting [6]), the IC50 came to 0.074 µM.
`CC(C)C[C@H](NC(=O)c1cc2cnccc2[nH]1)C(=O)NN(CCC(N)=O)C(=O)CCl` [Example 52, N-[(1S)-1-[[(3-amino-3-oxo-propyl)-(2-chloroacetyl)amino]carbamoyl]-3-methyl-butyl]-1H-pyrrolo[3,2-c]pyridine-2-carboxamide]: in assay [1] (setting [6]), the IC50 is 0.014 µM.
Still for that read-out and setting: to `COc1cccc2[nH]c(C(=O)N[C@@H](CC3CCCCC3)C(=O)NN(CCC(N)=O)C(=O)[C@H](F)Cl)cc12` [Example 56-A, N-[(1S)-2-[2-(3-amino-3-oxo-propyl)-2-[(2R)-2-chloro-2-fluoro-acetyl]hydrazino]-1-(cyclohexylmethyl)-2-axo-ethyl]-4-methoxy-1H-indole-2-carboxamide] belongs 0.008 µM; to `COc1cccc2[nH]c(C(=O)N[C@@H](CC3CCCCC3)C(=O)NN(CCC(N)=O)C(=O)[C@H](F)Cl)cc12` [Example 56-B, N-[(1S)-2-[2-(3-amino-3-oxo-propyl)-2-[(2S)-2-chloro-2-fluoro-acetyl]hydrazino]-1-(cyclohexylmethyl)-2-axo-ethyl]-4-methoxy-1H-indole-2-carboxamide], 0.003 µM; to `NC(=O)CCN(NC(=O)[C@H](CC1CCCCC1)NC(=O)c1cc2ccccc2[nH]1)C(=O)[C@@H](F)Cl` [Example 59-A, N-[(1S)-2-[2-(3-amino-3-oxo-propyl)-2-[(2S)-2-chloro-2-fluoro-acetyl]hydrazino]-1-(cyclohexylmethyl)-2-axo-ethyl]-1H-indole-2-carboxamide], 0.023 µM.
On the same count and under the same terms, to `NC(=O)CCN(NC(=O)[C@H](CC1CCCCC1)NC(=O)c1cc2ccccc2[nH]1)C(=O)[C@H](F)Cl` [Example 59-B, N-[(1S)-2-[2-(3-amino-3-oxo-propyl)-2-[(2R)-2-chloro-2-fluoro-acetyl]hydrazino]-1-(cyclohexylmethyl)-2-axo-ethyl]-1H-indole-2-carboxamide] belongs 0.005 µM.
Consider `Cc1cc(C(=O)N[C@@H](CC23CC(C2)C3)C(=O)NN(C[C@@H]2CCNC2=O)C(=O)[C@H](F)Cl)no1` [Example 71, N-[(1S)-1-(1-bicyclo[1.1.1]pentanylmethyl)-2-[2-[(2R)-2-chloro-2-fluoro-acetyl]-2-[[(3S)-2-axopyrrolidin-3-yl]methyl]hydrazino]-2-axo-ethyl]-5-methyl-isoxazole-3-carboxamide], for which the results for the IC50 in assay [1] (setting [5]) and in assay [4] were 0.11 µM and 25 nM, respectively.
Take `CC(C)(C)C[C@H](NC(=O)c1cnccn1)C(=O)NN(CCC(N)=O)C(=O)C(F)Cl` (stereo partly drawn) [Example 78, N-[rac-(1S)-1-[[(3-amino-3-oxo-propyl)-(2-chloro-2-fluoro-acetyl)amino]carbamoyl]-3,3-dimethyl-butyl]pyrazine-2-carboxamide]: in assay [1] (setting [5]), the IC50 was determined as 0.25 µM.
Regarding `CC(C)C[C@H](NC(=O)c1cc2ncccc2[nH]1)C(=O)NN(CCC(N)=O)C(=O)C(F)Cl` (stereo partly drawn) [Example 91, N-[(1S)-1-[[(3-amino-3-oxo-propyl)-(2-chloro-2-fluoro-acetyl)amino]carbamoyl]-3-methyl-butyl]-1H-pyrrolo[3,2-b]pyridine-2-carboxamide], in assay [1] (setting [6]), the IC50 came to 0.038 µM.
Still for that read-out and setting: to `CC1(C[C@H](NC(=O)c2cc(C(F)(F)F)on2)C(=O)NN(C[C@@H]2CCNC2=O)C(=O)[C@H](F)Cl)CC1` [Example 98, N—((S)-1-(2-((R)-2-Chloro-2-fluoroacetyl)-2-(((S)-2-axopyrrolidin-3-yl)methyl)hydrazineyl)-3-(1-methylcyclopropyl)-1-oxopropan-2-yl)-5-(trifluoromethyl)isoxazole-3-carboxamide] belongs 0.017 µM.
On to `O=C(N[C@@H](CC12CC(C1)C2)C(=O)NN(C[C@@H]1CCNC1=O)C(=O)[C@H](F)Cl)c1cc(C(F)(F)F)on1` [Example 99, N-[(1S)-1-(1-bicyclo[1.1.1]pentanylmethyl)-2-[2-[(2R)-2-chloro-2-fluoro-acetyl]-2-[[(3S)-2-axopyrrolidin-3-yl]methyl]hydrazino]-2-axo-ethyl]-5-(trifluoromethyl)isoxazole-3-carboxamide], for which the IC50 in assay [1] (setting [6]) was found to be 0.071 µM; in assay [4], 24 nM.
For “N-[(1S)-1-[[(3-amino-3-oxo-propyl)-[(2R)-2-chloro-2-fluoro-acetyl]amino]carbamoyl]-3-methyl-butyl]-1H-pyrrolo[2,3-c]pyridine-2-carboxamide and N-[(1S)-1-[[(3-amino-3-oxo-propyl)-[(2S)-2-chloro-2-fluoro-acetyl]amino]carbamoyl]-3-methyl-butyl]-1H-pyrrolo[2,3-c]pyridine-2-carboxamide [Example 88]”, the IC50 in assay [1] (setting [6]) came out at 0.013 µM.
